Compound	melting point [°C]
Clc1cc(CCc2ccccn2)c2oc(-c3cn[nH]c3)nc2c1	204 to 208
O=C1NC(=O)C(Cc2cccs2)N1 (stereo unspecified)	188 to 190
C=CC(=O)Nc1ccc2[nH]nnc2c1	248 to 253
CCCCCS(=O)(=O)NC(=O)/C=C/c1ccc(OCCOC)cc1Oc1ncc(NC(C)=O)cc1C	188
C=Cc1cn(-c2c(Cl)cc(C(F)(F)F)cc2Cl)nc1C#N	75 to 76
CCN(C(=O)OC(C)(C)C)c1cn(-c2cccnc2)nc1Cl	55 to 58
O=Cc1ccc(OCCCC(=O)O)c([N+](=O)[O-])c1	136 to 139
CCOc1ccc(C(=O)CCC(=O)O)c(OCC)c1	139 to 141
CCCc1c(OCc2cccn3c(=O)c(CC(=O)O)cnc23)ccc(C(C)=O)c1O	239 to 243
CN(CCN1CCCCC1)S(=O)(=O)c1cc([N+](=O)[O-])ccc1Sc1cc(Cl)cc(Cl)c1	113 to 114
Cc1nn(-c2ccccc2)c(O)c1-c1c(C)nn(-c2ccccc2)c1O	> 280
CC(C)(C)c1cc(CP(=O)(O)c2ccccc2)cc(C(C)(C)C)c1O	185 to 186
Cc1c(-c2cnc(N(C)C)nc2)ssc1=S	135
COC(=O)c1nc(-c2ccc([Si](C)(C)C)c(F)c2F)c(F)c(N)c1OC	123 to 125
Cc1cc(Oc2c(Cl)cc(C(F)(F)F)cc2Cl)nn1C(=S)NCC1CCCO1 (stereo unspecified)	69 to 71
CCCNC(=O)c1cncs1	86
CCCCCCS(=O)(=O)Cc1ccc(C(C)(C)NC(=O)OC)cc1	104 to 105
CSc1nc(C)ccc1NC(=O)CCCCCSc1nc2ccccc2s1	122 to 123
Cc1cn(Cc2ccccc2)c(=O)n(CC2(CO)CC2)c1=O	81.5
C#CCN1C(=O)C2(CCCC2)c2ccccc21	109 to 111
O=C(O)CCCc1cc2nc(Cl)ccc2n1S(=O)(=O)c1ccc2snnc2c1	227
CC(CC#N)C(C#N)(c1ccc(N2CCOCC2)c([N+](=O)[O-])c1)N1CCOCC1 (stereo unspecified)	175 to 177
Cc1ncc(C(=S)Nc2c(Cl)cncc2Cl)cc1OC1CCCC1	144 to 145
COC1(c2cccc(O)c2)OOC12C1CC3CC(C1)CC2C3 (stereo unspecified)	135

Compound	melting point [°C]
Cc1nn(-c2cc(I)c(Cl)cc2F)c(=O)n1C(F)F	125 to 127
CCc1cccc2c3c([nH]c12)C(CC)(CC)OCC3	133 to 134
CC(C)Oc1ccc(CCCOc2cc(CCC(=O)O)n(C3CCCCC3)n2)c(Oc2ncc(C(F)(F)F)cc2Cl)c1	114 to 115
CCC1NC(c2cc(Cl)nc(Cl)c2)=NC(=O)C1(CC)C(=O)OC (stereo unspecified)	202 to 203
O=C(CCc1nc(-c2ccccn2)no1)NC1CCN(Cc2ccc(Cl)c(Cl)c2)CC1	155
Cc1cc(C2=NN(c3nccs3)[C@H](C)Cc3cc4c(cc32)OCO4)ccc1[N+](=O)[O-]	138 to 142
NC(=O)NCCCCCC1CCSS1 (stereo unspecified)	74 to 78
CC(=O)N1[C@@H](C(=O)O)C(C)(C)S[C@H]1c1ccccc1	216 to 217
O=C(NCCc1ccc(O)c(O)c1)C1CC1	174 to 176
CC(=O)Nc1nc(CCc2ccc(NC(=O)CNC(=O)OC(C)(C)C)cc2)c(Cc2ccc(S(C)(=O)=O)cc2)s1	186 to 188
CCCCCN(CCCCC)CCC(O)(P(=O)(O)O)P(=O)(O)O	47 to 49
COC(=O)CSC=C1C(=O)OC(C)(C)OC1=O	117 to 118
COc1ccc(C2CCS(=O)(=O)C2)cc1OC1CCCC1 (stereo unspecified)	89 to 90
CCCNC(=S)n1nc(Oc2ncc(C(F)(F)F)cc2Cl)cc1C	51 to 53
COC(=O)C(=NO)C(=O)N1CCC(c2ccc(OC)c(OC3CCCC3)c2)CC1	159 to 160
CN(C)C(=O)Nc1ccc(CN2OCC(C)(C)C2=O)c(Cl)c1	145 to 147
CCCC(=O)Nc1n[nH]c2c(N)cc(C)nc12	170 to 171
CCOc1c(C)cnc(CO)c1C	58 to 59
CCOC1c2ccccc2-c2[nH]c(=O)c(=O)[nH]c21 (stereo unspecified)	> 300
Cc1sc(N2CCOCC2)nc1/C=C/c1cn(-c2ccccc2)nc1O	278 to 279
CCn1ncc2c(NCC3CCCC(O)C3)c3cc([N+](=O)[O-])ccc3nc21 (stereo unspecified)	236 to 238
Cc1cc2c(F)cc(F)c(-n3c(=O)cc(C(F)(F)F)n(C)c3=O)c2o1	176 to 178
O=C1OC2(CCN(CCOC(c3ccccc3)c3ccccc3)CC2)c2ccccc21	99 to 100
CC(C)(C)c1ccc(CCC(CC2CCCCC2)OC(=O)OCC(=O)O)cc1NC(=O)CC1c2ccccc2Oc2ccccc21 (stereo unspecified)	143 to 145

Other lines, results leading:

melting point [°C]	Compound
131 to 134	COC(=O)c1nn(Cc2ccc(Br)cc2F)c(=O)c2ccc(F)cc12
86 to 88	CCCCCCCCCCOc1cc(OCCCCCCc2cccc(O)c2O)cc(C(=O)O)c1
124 to 125	CCCn1nnc(NC(=O)C(c2ccccc2)c2ccccc2)n1
109 to 110	COc1ccccc1N(CN1CCOC1=O)C(=O)CCl
208 to 209	O=C(NCc1ccc(Cl)cc1)c1cnc2c(F)cc(C#CCCCO)cc2c1O
233 to 245	CCOC(=O)c1cnc(Cc2ccccc2)c(C)c1Cl
267 to 268	CCCCOC(=O)CNC(=O)c1ccc2cc(C(=O)O)[nH]c2c1
224 to 225	NC(=O)c1cc(-c2ccc(Cl)cc2)on1
194 to 196	Nc1ccccc1NC(=O)/C=C/c1ccccc1I
197 to 198	O=C(Nc1ccccc1-c1nc2cccnc2o1)c1ccccc1
> 280	COc1cccc2c1CN(c1c(F)c(F)c3c(=O)c(C(=O)O)cn(C4CC4)c3c1F)C2
240 to 241	COC(=O)[C@]1(C)Cc2c([nH]c3ccc(Cl)cc23)[C@@H](c2cccc(O)c2)N1 (racemic)
218 to 221	CNc1ccc(Nc2nc(N3CCOCC3)nc(-n3c(C(F)F)nc4c(OC)cccc43)n2)cn1
169 to 170	CCCc1nc(C(C)(C)O)c(-c2nnn[nH]2)n1Cc1ccc(-c2ccccc2C(=O)C(=O)O)cc1
115 to 120	CN(C)C=C(Cc1ccccc1)C(=O)c1cccnc1Cl
190 to 192	CCOC(=O)NNc1ccc(-c2ccc(Br)cc2)nn1
89	COC1(c2nc(Sc3ccc(/C(C)=N/O)cc3)cs2)CCOCC1
120 to 122	CC(C)Oc1ccc(N)c(C(=O)O)c1
182 to 184	C[C@@H](n1ncn(-c2ccc(-n3cncn3)cc2)c1=O)[C@](O)(Cn1cncn1)c1ccc(F)cc1F
174 to 177	O=C(O)Cc1c(C(=O)c2cccc(OCc3ccccc3)c2)[nH]c2cc(Cl)ccc12
112	CS(=O)(=O)c1ccc(-c2sc(NCc3ccccc3)nc2-c2ccc(F)cc2)cc1
60 to 61	COC(=O)Cc1noc2cc(F)ccc12
174 to 177	Clc1ccc(-c2cn3ccccc3n2)c(Cl)c1
251	NC(CC1c2ccccc2Sc2ccccc21)(C(=O)O)c1ccc(C(=O)O)cc1 (stereo unspecified)
140 to 142	Cc1cccc(-n2nc(C)cc2-c2ccnc(S(C)(=O)=O)c2)c1
201 to 202	O=C(NC(c1ccccc1)c1ccccc1)c1c[nH]cn1
256 to 257	CSc1ccc2[nH]c(C(=O)O)cc(=O)c2c1

melting point [°C]	Compound
110 to 115	CCN(CC)c1ccc(N(Cc2ccc(N)c(OC)c2)C(N)=O)c(C)c1
92 to 93	COc1ccc(CCNS(=O)(=O)c2ccc([N+](=O)[O-])cc2)cc1
208 to 211	CN(C)C(=O)/C=C/c1ccc(C(=O)c2c(-c3ccc(O)cc3)sc3cc(O)ccc23)cc1
163 to 165	COc1cc(C#N)ccc1C(Br)C(Br)C(=O)c1ccc(C#N)cc1 (stereo unspecified)
218 to 222	Oc1ccc(-c2cc3cc(O)ccc3o2)cc1
144 to 146	COc1ccc(C(=O)Nc2ccc(C(C)(C)C#N)c(-c3cccc(Cl)c3)c2)cc1OC
86 to 99	COc1cc(C2CCN(C(=O)CN)CC2)ccc1Nc1ncc2ccc(-c3ccccc3OC)n2n1
199 to 200	COc1cc2c(cc1O)CCN(C(=O)c1ccccc1OC)C2=O
191 to 193	COc1ccc(C(=O)C2Cc3ccc(O)c(O)c3C2=O)cc1 (stereo unspecified)
190 to 191	COc1ccc(C(=O)N2CCN(C(=O)C3=Cc4cc(OC)c(OC)cc4CC3)CC2)cc1OC
186 to 187	O=C(NC(CCc1ccccc1)C(=O)Nc1n[nH]c(=S)s1)OCC1c2ccccc2-c2ccccc21 (stereo unspecified)
189 to 190	COc1ccc(C2Sc3c(ccc4ccccc34)N(CCN(C)C)C(=O)C2OC(=O)c2cc(OC)c(OC)c(OC)c2)cc1 (stereo unspecified)
255 to 260	Nc1c(-c2ccc(-c3ccccc3F)cc2)nc2ccc(C(F)(F)F)cc2c1C(=O)O
198 to 200	CN1C(=O)C2(COc3cc4c(cc32)OCCO4)c2c(OCc3ccccc3)cccc21 (stereo unspecified)
197 to 200	COc1ccc(Nc2ncc3cc4ccccc4n3n2)cc1
210	COc1ccc2c(c1OC)C(=Cc1ccccc1)c1ccccc1-2
200 to 201	COc1ccc2c(c1)-c1n[nH]c(-c3ccncc3)c1CCC2
189 to 190	Nc1nc2ccccc2c2c1ncn2CCCCNC(=O)c1cccnc1
90 to 96	CC(C)C[C@H](NC(=O)OC(C)(C)C)C(=O)N[C@@H](C(C)C)[C@@H](O)c1c(-c2ccc(F)cc2)c1=O
126 to 128	COc1cc(C)c(S(=O)(=O)c2ccccc2C)cc1OC
94 to 96	CCOc1ccc(CC2(C)CNCCN2Cc2ccccc2)cc1OCC (stereo unspecified)
166 to 167	CNc1cc(C=O)cc(S(N)(=O)=O)c1Oc1ccccc1
127 to 128	O=C(N[C@H]1CCN(CCc2ccc(F)cc2)C1)C1=c2ccccc2=CC=C2CC=CC=C21
112 to 113	CN(Cc1ccccc1)c1nc(=O)c2cccnc2s1
137 to 138	COc1ccc(C2(C#Cc3nccn3C)CCC(=O)CC2)cc1OC1CCCC1
83 to 85	OCc1ccc2c(n1)C(CNCCCCCCOCCC#Cc1ccc(F)cc1)OC(c1ccccc1)O2 (stereo unspecified)

Source: a melting point compilation (Tetko et al.; mined from patent text by program, amines drawn as free bases though some values may be those of a salt)
